# Literature values as cited in article PMC6358866 (International Journal of Molecular Sciences, 2019).
# Tested on: human cells (keratinocytes, erythrocytes)
# Details: cited from earlier work
# Excerpt: PA was also the most difficult strain to eliminate from the surface of CL in the previous study, in which we investigated amphibian peptides and short lipopeptides containing hexadecanoic acid according to their potential application as CL solution additives. The results of performed antimicrobial assays were also very promising. However, due to high toxicity towards human keratinocytes in vitro, the ocular applications of lipopeptides with hexadecanoic acid are not worth further consideration. In contrast to those lipopeptides, the compound with two residues of decanoic aci ... || The excellent antimicrobial activity was previously reported for many lipopeptides. This, along with the relatively low production costs, has encouraged many research groups to study their antimicrobial activities and design molecules with optimal properties. C16-KK-NH2 is one of such extensively studied compounds. […] Other derivatives ...
substance,measurement,value
(C10)2-KKKK-NH2 [Lipopeptide],toxicity towards human cells in vitro,does not exhibit toxicity
